EPA's ToxRefDB 2

How the values were obtained:
rat [1] = settings: Multigenerational reproductive toxicity study, sprague dawley, Oral, Feed, dose end: 2 generation
rat [2] = settings: Combined chronic toxicity/carcinogenicity; sprague dawley; Oral; Feed; dose end: 104 week; group: systemic; systemic / in life observation / body weight / body weight gain + systemic / pathology microscopic / kidney / concretion + systemic / …
rabbit [3] = settings: Prenatal developmental toxicity study, new zealand white, Oral, Gavage/Intubation, dose end: 19 GD, group: maternal
dog [4] = settings: Chronic toxicity, beagle, Oral, Feed, dose end: 106 week, group: systemic
rat [5] = settings: Prenatal developmental toxicity study; wistar; Oral; Gavage/Intubation; dose end: 5 GD; group: maternal; reproductive / reproductive performance / implantations / implantations
dog [6] = settings: Subchronic oral toxicity in nonrodent, beagle, Feed, dose end: 90 day, group: systemic
rat [7] = settings: Multigenerational reproductive toxicity study, sprague dawley, Oral, Feed, dose end: 2 generation; remark: listed apart in the source
rat [8] = settings: Combined chronic toxicity/carcinogenicity, fischer, Oral, Feed, dose end: 2 year, group: systemic
rabbit [9] = settings: Prenatal developmental toxicity study; new zealand white; Oral; Gavage/Intubation; dose end: 19 GD; group: maternal; reproductive / reproductive performance / postimplantation loss / postimplantation loss + reproductive / reproductive performance / …
dog [10] = settings: Chronic toxicity, beagle, Oral, Feed, dose end: 12 month
mouse = settings: Carcinogenicity, cd1, Oral, Feed, dose end: 18 month, group: systemic
rat [11] = settings: Developmental neurotoxicity study; sprague dawley; Inhalation; Whole-Body; dose end: 365 PND; group: cannot be grouped; systemic / in life observation / body weight / body weight gain + systemic / in life observation / body weight / offspring (pup) weight
[12] = group: offspring, systemic / in life observation / body weight / offspring (pup) weight
[13] = group: parental, systemic / in life observation / body weight / body weight + systemic / in life observation / body weight / body weight gain + systemic / in…
[14] = reproductive / reproductive performance / resorptions / resorptions + systemic / in life observation / food consumption / food consumption
[15] = systemic / pathology microscopic / bone marrow / atrophy + systemic / pathology microscopic / kidney / congestion + systemic / pathology …
[16] = systemic / in life observation / body weight / body weight gain
[17] = systemic / in life observation / body weight / body weight gain + systemic / in life observation / food consumption / food consumption
[18] = group: offspring, systemic / in life observation / body weight / offspring (pup) weight + developmental / offspring survival late / lactation index / …
[19] = group: parental, systemic / in life observation / food consumption / food consumption + systemic / in life observation / body weight / body weight + systemic…
[20] = group: reproductive, reproductive / offspring survival early / birth index / live birth index
[21] = systemic / pathology gross / stomach / discolored + systemic / pathology gross / stomach / foci + systemic / pathology gross / stomach / …
[22] = group: reproductive, reproductive / reproductive performance / estrous cycle / periodicity
[23] = group: systemic, systemic / in life observation / body weight / body weight + systemic / in life observation / body weight / body weight gain + systemic / in…
[24] = group: systemic, systemic / pathology microscopic / uterus / estrus
[25] = systemic / organ weight / liver / nos + systemic / pathology microscopic / liver / eosinophilic focus + systemic / pathology microscopic / …

SMILES: CSc1nc(NC(C)C)nc(NC(C)C)n1 [Prometryn]
- LEL (rat [1]; [12]): 47.8 mg/kg/day
- LOAEL (rat [1]; [12]): 47.8 mg/kg/day
- NEL (rat [1]; [12]): 0.6 mg/kg/day
- NOAEL (rat [1]; [12]): 0.6 mg/kg/day
- LEL (rat [1]; [13]): 47.8 mg/kg/day
- LOAEL (rat [1]; [13]): 47.8 mg/kg/day
- NEL (rat [1]; [13]): 0.6 mg/kg/day
- NOAEL (rat [1]; [13]): 0.6 mg/kg/day
- LEL (rat [2]): 60.9 mg/kg/day
- LOAEL (rat [2]): 60.9 mg/kg/day
- NEL (rat [2]): 29.4 mg/kg/day
- NOAEL (rat [2]): 29.4 mg/kg/day
- LOAEL (rabbit [3]; [14]): 72 mg/kg/day
- NEL (rabbit [3]; [14]): 12 mg/kg/day
- NOAEL (rabbit [3]; [14]): 12 mg/kg/day
- LEL (rabbit [3]; reproductive / reproductive performance / resorptions / resorptions + systemic / in life observation / food consumption / food consumption…): 72 mg/kg/day
- LOAEL (dog [4]; [15]): 37.5 mg/kg/day
- NEL (dog [4]; [15]): 0.375 mg/kg/day
- NOAEL (dog [4]; [15]): 3.75 mg/kg/day
- LEL (dog [4]; systemic / pathology microscopic / liver / cellular alteration + systemic / pathology microscopic / liver / depletion glycogen + systemic / …): 3.75 mg/kg/day

SMILES: Cc1ccc(-c2cc(C(F)(F)F)nn2-c2ccc(S(N)(=O)=O)cc2)cc1 [Celecoxib]
- LEL (rat [5]): 80 mg/kg/day
- LOAEL (rat [5]): > 160 mg/kg/day
- NEL (rat [5]): 40 mg/kg/day
- NOAEL (rat [5]): ≥ 160 mg/kg/day

SMILES: CC(C)N(C(=O)CCl)c1ccccc1 [Propachlor]
- LEL (dog [6]; [16]): 2.5 mg/kg/day
- NEL (dog [6]; [16]): < 2.5 mg/kg/day
- LOAEL (dog [6]; [17]): > 37.5 mg/kg/day
- NOAEL (dog [6]; [17]): ≥ 37.5 mg/kg/day
- LEL (rat [7]; [12]): 69.6 mg/kg/day
- LOAEL (rat [7]; [12]): 69.6 mg/kg/day
- NEL (rat [7]; [18]): 7.1 mg/kg/day
- NOAEL (rat [7]; [18]): 7.1 mg/kg/day
- LEL (rat [7]; [19]): 69.6 mg/kg/day
- LOAEL (rat [7]; [19]): 69.6 mg/kg/day
- NEL (rat [7]; [19]): 7.1 mg/kg/day
- NOAEL (rat [7]; [19]): 7.1 mg/kg/day
- LEL (rat [7]; [20]): 141 mg/kg/day
- LOAEL (rat [7]; [20]): > 141 mg/kg/day
- NOAEL (rat [7]; [20]): ≥ 141 mg/kg/day
- LEL (rat [8]; systemic / clinical chemistry / aspartate aminotransferase (ast/sgot) / aspartate aminotransferase (ast/sgot)): 16.1 mg/kg/day
- LOAEL (rat [8]; [21]): 125 mg/kg/day
- NEL (rat [8]; [21]): 5.4 mg/kg/day
- NOAEL (rat [8]; [21]): 53.6 mg/kg/day
- LEL (rabbit [9]): 50 mg/kg/day
- LOAEL (rabbit [9]): 50 mg/kg/day
- NEL (rabbit [9]): 5 mg/kg/day
- NOAEL (rabbit [9]): 5 mg/kg/day
- LEL (dog [10]; [22]): 0.625 mg/kg/day
- LOAEL (dog [10]; [22]): > 25 mg/kg/day
- NEL (dog [10]; [22]): < 0.625 mg/kg/day
- NOAEL (dog [10]; [22]): ≥ 25 mg/kg/day
- LOAEL (dog [10]; [23]): 25 mg/kg/day
- NOAEL (dog [10]; [23]): 6.25 mg/kg/day
- LEL (dog [10]; [24]): 0.625 mg/kg/day
- NEL (dog [10]; [24]): < 0.625 mg/kg/day
- LEL (mouse; systemic / organ weight / liver / nos): 75 mg/kg/day
- NEL (mouse; systemic / organ weight / liver / nos + systemic / organ weight / kidney / nos + systemic / pathology microscopic / liver / hypertrophy): 14.6 mg/kg/day
- LOAEL (mouse; [25]): 223 mg/kg/day
- NOAEL (mouse; [25]): 75 mg/kg/day

SMILES: FC(F)(F)C(Cl)Br (stereo not drawn) [Halothane]
- LEL (rat [11]): 12.5 ppm
- LOAEL (rat [11]): > 12.5 ppm
- NEL (rat [11]): < 12.5 ppm
- NOAEL (rat [11]): ≥ 12.5 ppm
